According to article PMC6225228, “Design, Synthesis and Evaluation of N-pyrazinylbenzamides as Potential Antimycobacterial Agents” (Molecules : A Journal of Synthetic Chemistry and Natural …, 2018):
In brackets after ≈: the same amount, converted by molar mass. Where two headings read alike, the source gives them in different places.

How the values were obtained:
[1] = test system: Mycobacterium tuberculosis H37Rv CNCTC My 331/88 (ATCC 27294); experiment: Antimycobacterial microdilution MABA, M. tuberculosis; assay type: cell-based; conditions: Middlebrook 7H9 with OADC growth supplement, pH = 6.6, MABA; for MIC: Mycobacterium tuberculosis, read-out: Mtb H37Rv ATCC 27294 MIC
[2] = test system: Mycobacterium smegmatis CCM 4622 (ATCC 607); experiment: Antimycobacterial microdilution, M. smegmatis; assay type: cell-based; conditions: Middlebrook 7H9 with OADC, resazurin
[3] = test system: M. avium ssp. avium CNCTC My 80/72 (ATCC 15769); experiment: Antimycobacterial microdilution MABA, M. avium; assay type: cell-based, Mycobacterium avium; conditions: for MIC: Mycobacterium avium
[4] = test system: M. kansasii CNCTC My 235/80 (ATCC 12478); experiment: Antimycobacterial microdilution MABA, M. kansasii; assay type: cell-based, Mycobacterium kansasii; conditions: for MIC: Mycobacterium kansasii
[5] = test system: Escherichia coli CCM 4517; experiment: Antibacterial microdilution broth, EC; assay type: cell-based; conditions: read-out: MIC EC
[6] = test system: Staphylococcus epidermidis H 6966/08; experiment: Antibacterial microdilution broth, SE; assay type: cell-based; conditions: read-out: MIC SE
[7] = test system: Enterococcus sp. J 14365/08; experiment: Antibacterial microdilution broth, EF; assay type: cell-based; conditions: read-out: MIC EF
[8] = test system: Staphylococcus aureus CCM 4516/08; experiment: Antibacterial microdilution broth, SA; assay type: cell-based; conditions: read-out: MIC SA
[9] = test system: Staphylococcus aureus H 5996/08 methicillin resistant; experiment: microbe, parasite or virus in culture; assay type: cell-based; conditions: for MIC: Staphylococcus aureus, MRSA, read-out: MIC MRSA
[10] = test system: Pseudomonas aeruginosa CCM 1961; experiment: Antibacterial microdilution broth, PA; assay type: cell-based; conditions: read-out: MIC PA
Candida tropicalis 156 = experiment: Antifungal microdilution broth, CT; assay type: cell-based; conditions: read-out: MIC CT
[11] = test system: Lichtheimia corymbifera 272; experiment: Antifungal microdilution broth, LC; assay type: cell-based; conditions: read-out: MIC LC
[12] = test system: Aspergillus fumigatus 231; experiment: Antifungal microdilution broth, AF; assay type: cell-based; conditions: read-out: MIC AF
[13] = test system: Candida albicans ATCC 44859; experiment: Antifungal microdilution broth, CA; assay type: cell-based; conditions: Candida albicans, read-out: MIC CA
[14] = test system: Trichophyton interdigitale 445; experiment: Antifungal microdilution broth, TI; assay type: cell-based; conditions: read-out: MIC TI
Candida glabrata 20/I = experiment: Antifungal microdilution broth, CG; assay type: cell-based; conditions: Nakaseomyces glabratus, 20/I, read-out: MIC CG
Candida krusei E28 = experiment: Antifungal microdilution broth, CK; assay type: cell-based; conditions: Pichia kudriavzevii, read-out: MIC CK
Trichosporon asahii 1188 = experiment: Antifungal microdilution broth, TA; assay type: cell-based; conditions: read-out: MIC TA
[15] = Middlebrook 7H9 with OADC, pH 6.6, MABA

**Q.** How did the MIC [1] turn out when `CCc1ccc(C(=O)Nc2cncc(Cl)n2)cc1` [Compound 3i] was run?
**A.** > 100 µg/mL

**Q.** And the MIC ([2]; Mycolicibacterium smegmatis, read-out: M. smeg. ATCC 607 MIC)?
**A.** ≥ 500 µg/mL

**Q.** And the MIC ([3]; ATCC15769, Middlebrook 7H9 with OADC, pH 6.6, MABA, read-out: M. avium ATCC 15769 MIC)?
**A.** > 100 µg/mL

**Q.** And the MIC ([4]; ATCC12478, Middlebrook 7H9 with OADC, pH 6.6, MABA, read-out: M. kans. ATCC 12478 MIC)?
**A.** > 100 µg/mL

**Q.** How did the MIC ([5]; 24 h) turn out when bacitracin [reference compound] was run?
**A.** > 500 µM

**Q.** And the MIC ([5]; 48 h)?
**A.** > 500 µM

**Q.** What about the MIC ([6]; 24 h) of the same molecule?
**A.** 15.62 µM

**Q.** And the MIC ([6]; 48 h)?
**A.** 31.25 µM

**Q.** And the MIC ([7]; 24 h)?
**A.** 31.25 µM

**Q.** And the MIC ([7]; 48 h)?
**A.** 31.25 µM

**Q.** And the MIC ([8]; 24 h)?
**A.** 15.62 µM

**Q.** What about the MIC ([8]; 48 h) of the same molecule?
**A.** 31.25 µM

**Q.** And the “MIC MRSA” value ([9]; 24 h)?
**A.** 15.62 µM

**Q.** What about the “MIC MRSA” value ([9]; 48 h) of the same molecule?
**A.** 31.25 µM

**Q.** What about the MIC ([10]; 72 h) of the same molecule?
**A.** > 500 µM

**Q.** And the MIC ([10]; 120 h)?
**A.** > 500 µM

**Q.** `NNC(=O)c1ccncc1` [INH, isoniazid, reference compound] was tested. Which “Mtb H37Rv ATCC 27294 MIC” value [1] did it give?
**A.** 0.1 to 0.39 µg/mL

**Q.** What about the MIC [1] of the same molecule?
**A.** 0.1 to 0.2 µg/mL (≈ 0.729 to 1.46 µM)

**Q.** What about the MIC ([3]; ATCC15769, pH 6.6, read-out: M. avium ATCC 15769 MIC) of the same molecule?
**A.** 6.25 to 12.5 µg/mL (≈ 45.6 to 91.1 µM)

**Q.** And the “M. kans. ATCC 12478 MIC” value [4, 15]?
**A.** 6.25 to 12.5 µg/mL

**Q.** And the MIC ([4]; ATCC12478, pH 6.6, read-out: M. kans. ATCC 12478 MIC, Middlebrook 7H9 with OADC, pH 6.6, MABA)?
**A.** 3.13 to 12.5 µg/mL (≈ 22.8 to 91.1 µM)

**Q.** How did the MIC (Candida tropicalis 156; Candida tropicalis, 156, 24 h) turn out when `OC(Cn1cncn1)(Cn1cncn1)c1ccc(F)cc1F` [FLU, fluconazole, reference compound] was run?
**A.** > 500 µM

**Q.** And the MIC (Candida tropicalis 156; Candida tropicalis, 156, 48 h)?
**A.** > 500 µM

**Q.** And the MIC ([11]; Lichtheimia corymbifera, 272, 24 h)?
**A.** > 500 µM

**Q.** And the MIC ([11]; Lichtheimia corymbifera, 272, 48 h)?
**A.** > 500 µM

**Q.** And the MIC ([12]; Aspergillus fumigatus, 231, 24 h)?
**A.** > 500 µM

**Q.** What about the MIC ([12]; Aspergillus fumigatus, 231, 48 h) of the same molecule?
**A.** > 500 µM

**Q.** And the MIC ([13]; ATCC44859, 24 h)?
**A.** 0.24 µM (≈ 0.0735 µg/mL)

**Q.** What about the MIC ([13]; ATCC44859, 48 h) of the same molecule?
**A.** 0.24 µM (≈ 0.0735 µg/mL)

**Q.** And the MIC ([14]; Trichophyton interdigitale, 445, 72 h)?
**A.** 7.81 µM (≈ 2.39 µg/mL)

**Q.** And the MIC ([14]; Trichophyton interdigitale, 445, 120 h)?
**A.** 125 µM (≈ 38.3 µg/mL)

**Q.** And the MIC (Candida glabrata 20/I; 24 h)?
**A.** 31.2 µM (≈ 9.57 µg/mL)

**Q.** And the MIC (Candida glabrata 20/I; 48 h)?
**A.** 250 µM (≈ 76.6 µg/mL)

**Q.** What about the MIC (Candida krusei E28; E28, 24 h) of the same molecule?
**A.** 125 µM (≈ 38.3 µg/mL)

**Q.** What about the MIC (Candida krusei E28; E28, 48 h) of the same molecule?
**A.** 250 µM (≈ 76.6 µg/mL)

**Q.** And the MIC (Trichosporon asahii 1188; Trichosporon asahii, 1188, 24 h)?
**A.** 250 µM (≈ 76.6 µg/mL)

**Q.** And the MIC (Trichosporon asahii 1188; Trichosporon asahii, 1188, 48 h)?
**A.** 500 µM (≈ 153 µg/mL)

**Q.** How did the MIC ([5]; Escherichia coli, CCM4517, 24 h) turn out when `CC1(C)S[C@@H]2[C@H](NC(=O)COc3ccccc3)C(=O)N2[C@H]1C(=O)O` [Phen, phenoxymethylpenicillin, reference compound] was run?
**A.** > 500 µM

**Q.** What about the MIC ([5]; Escherichia coli, CCM4517, 48 h) of the same molecule?
**A.** > 500 µM

**Q.** What about the MIC ([6]; Staphylococcus epidermidis, H6966/08, 24 h) of the same molecule?
**A.** 62.5 µM (≈ 21.9 µg/mL)

**Q.** What about the MIC ([6]; Staphylococcus epidermidis, H6966/08, 48 h) of the same molecule?
**A.** 250 µM (≈ 87.6 µg/mL)

**Q.** And the MIC ([7]; Enterococcus, SP.J14365/08, 24 h)?
**A.** 7.81 µM (≈ 2.74 µg/mL)

**Q.** And the MIC ([7]; Enterococcus, SP.J14365/08, 48 h)?
**A.** 7.81 µM (≈ 2.74 µg/mL)

**Q.** And the MIC ([8]; Staphylococcus aureus, CCM4516, 24 h)?
**A.** 0.24 µM (≈ 0.0841 µg/mL)

**Q.** What about the MIC ([8]; Staphylococcus aureus, CCM4516, 48 h) of the same molecule?
**A.** 0.24 µM (≈ 0.0841 µg/mL)

**Q.** What about the MIC ([9]; 24 h) of the same molecule?
**A.** 250 µM (≈ 87.6 µg/mL)

**Q.** What about the MIC ([9]; 48 h) of the same molecule?
**A.** 500 µM (≈ 175 µg/mL)

**Q.** What about the MIC ([10]; Pseudomonas aeruginosa, CCM1961, 72 h) of the same molecule?
**A.** > 500 µM

**Q.** And the MIC ([10]; Pseudomonas aeruginosa, CCM1961, 120 h)?
**A.** > 500 µM

**Q.** What does the source list for `O=C(Nc1cncc(Cl)n1)c1ccccc1O` [Compound 3b]?
**A.** Mtb H37Rv ATCC 27294 MIC [1]: > 100 µg/mL; M. smeg. ATCC 607 MIC [2]: 250 µg/mL; M. avium ATCC 15769 MIC [3, 15]: > 100 µg/mL; M. kans. ATCC 12478 MIC [4, 15]: > 100 µg/mL
